Measured values reported in the supplement of paper PMC10307832.

Tests used:
Assay in all cases: relative viability (nuclei count vs DMSO), 5 days (fraction); higher = more cells survive
[1] = compound: CN(c1ncccc1CNc1nc(Nc2ccc3c(c2)CC(=O)N3)ncc1C(F)(F)F)S(C)(=O)=O
How it was run: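 A plate was accepted only when its control CV was below 25% and the cells had doubled at least once. Viability is defined from nuclear counts as treated wells divided by vehicle wells, with the median taken across plates. That median covers lung cancer cell lines grown in 1536-well plates, dosed by pinning at five √10-spaced library-drug concentrations, and counted in MetaXpress from 4× Hoechst images after 5 days.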

[2] = compound: CN(c1ncccc1CNc1nc(Nc2ccc3c(c2)CC(=O)N3)ncc1C(F)(F)F)S(C)(=O)=O + CC(=O)Nc1cccc(-n2c(=O)n(C3CC3)c(=O)c3c(Nc4ccc(I)cc4F)n(C)c(=O)c(C)c32)c1 [Trametinib] (partner 0.02 µM)
How it was run: (§1)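 Dosing by pin tool came one day after lung cancer cell lines were seeded in 1536-well plates, using either one drug or a fixed anchor-drug dose plus five library-drug doses (not always all listed) in √10 steps. After 5 days, nuclei were counted on 4× images. Relative viability is treated-well nuclei count divided by vehicle-well nuclei count, and values are medians of duplicate plates.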

[3] = compound: CN(c1ncccc1CNc1nc(Nc2ccc3c(c2)CC(=O)N3)ncc1C(F)(F)F)S(C)(=O)=O + COc1cccc2cc(-c3nc([C@H]4CC[C@H](C(=O)O)CC4)n4ncnc(N)c34)[nH]c12 [OSI-027] (partner 0.5 µM)
How it was run: as §1

[4] = compound: CN(c1ncccc1CNc1nc(Nc2ccc3c(c2)CC(=O)N3)ncc1C(F)(F)F)S(C)(=O)=O + N=C(N)NC(=N)NCCc1ccccc1 [Phenformin] (partner 250 µM)
How it was run: as §1

| Cell Line | relative viability ([1]; 0.01 µM) | relative viability ([1]; 0.03162 µM) | relative viability ([1]; 0.1 µM) | relative viability ([1]; 0.3162 µM) | relative viability ([1]; 1 µM) | relative viability ([2]; first compound 0.01 µM) | relative viability ([2]; first compound 0.03162 µM) | relative viability ([2]; first compound 0.1 µM) | relative viability ([2]; first compound 0.3162 µM) | relative viability ([2]; first compound 1 µM) | relative viability ([3]; first compound 0.01 µM) | relative viability ([3]; first compound 0.03162 µM) | relative viability ([3]; first compound 0.1 µM) | relative viability ([3]; first compound 0.3162 µM) | relative viability ([3]; first compound 1 µM) | relative viability ([4]; first compound 0.01 µM) | relative viability ([4]; first compound 0.03162 µM) | relative viability ([4]; first compound 0.1 µM) | relative viability ([4]; first compound 0.3162 µM) | relative viability ([4]; first compound 1 µM) |
| --- | --- | --- | --- | --- | --- | --- | --- | --- | --- | --- | --- | --- | --- | --- | --- | --- | --- | --- | --- | --- |
| HCC-78 | 0.993 | 1.02 | 0.807 | 0.862 | 0.739 | 0.681 | 0.864 | 0.753 | 0.641 | 0.507 | 0.378 | 0.399 | 0.36 | 0.421 | 0.353 | 0.67 | 0.662 | 0.563 | 0.566 | 0.573 |
| HCC-366 | 0.997 | 1.04 | 1.02 | 1 | 1.02 | 0.41 | 0.398 | 0.296 | 0.303 | 0.308 | 0.786 | 1.01 | 0.846 | 0.996 | 0.973 | 0.662 | 0.695 | 0.614 | 0.577 | 0.606 |
| HCC-827 | 1.05 | 1.08 | 1.04 | 1.01 | 0.989 | 0.574 | 0.517 | 0.496 | 0.56 | 0.495 | 0.765 | 0.775 | 0.821 | 0.799 | 0.759 | 0.402 | 0.465 | 0.432 | 0.441 | 0.404 |
| HOP-62 | 1.07 | 1.08 | 0.99 | 0.979 | 0.98 | 0.353 | 0.438 | 0.379 | 0.332 | 0.306 | 0.956 | 0.804 | 0.743 | 0.825 | 0.731 | 0.776 | 0.681 | 0.628 | 0.675 | 0.558 |
| IA-LM | 0.899 | 1.11 | 0.912 | 0.823 | 0.805 | – | – | – | – | – | – | – | – | – | – | – | – | – | – | – |
| LC-2-ad | 1.01 | 1.01 | 0.966 | 0.883 | 0.967 | 0.876 | 0.932 | 0.926 | 0.905 | 0.793 | 0.874 | 0.851 | 0.905 | 0.827 | 0.758 | 0.52 | 0.544 | 0.548 | 0.567 | 0.524 |
| LCLC-97TM1 | 1 | 1.11 | 0.881 | 0.966 | 0.821 | 0.207 | 0.189 | 0.184 | 0.206 | 0.124 | 0.512 | 0.524 | 0.42 | 0.458 | 0.576 | 0.345 | 0.437 | 0.425 | 0.397 | 0.401 |
| LCLC-103H | 0.964 | 0.966 | 0.877 | 0.919 | 0.958 | 0.674 | 0.687 | 0.675 | 0.704 | 0.673 | 0.497 | 0.399 | 0.422 | 0.448 | 0.424 | 0.337 | 0.298 | 0.277 | 0.348 | 0.318 |
| LK-2 | 1.05 | 1.24 | 1.03 | 1.08 | 1.1 | 0.897 | 0.973 | 0.679 | 0.73 | 0.601 | 0.198 | 0.157 | 0.244 | 0.205 | 0.18 | 0.376 | 0.386 | 0.63 | 0.517 | 0.532 |
| LOU-NH91 | 1.04 | 0.976 | 0.925 | 1.02 | 1.02 | 0.802 | 0.793 | 0.75 | 0.819 | 0.787 | 0.714 | 0.82 | 0.685 | 0.823 | 0.801 | 0.704 | 0.776 | 0.726 | 0.716 | 0.792 |
| LU99A | 0.964 | 1.06 | 1.04 | 1.17 | 1.01 | 0.559 | 0.663 | 0.564 | 0.65 | 0.574 | 0.284 | 0.279 | 0.27 | 0.277 | 0.352 | 0.874 | 0.706 | 0.952 | 0.924 | 1.15 |
| LXF-289 | 1.09 | 1.05 | 1.01 | 0.991 | 1.01 | 0.706 | 0.693 | 0.648 | 0.664 | 0.633 | 0.806 | 0.807 | 0.707 | 0.641 | 0.762 | 0.542 | 0.55 | 0.538 | 0.521 | 0.525 |
| NCI-H23 | 1.02 | 0.963 | 1.06 | 1.06 | 0.973 | 0.392 | 0.319 | 0.388 | 0.466 | 0.404 | 0.735 | 0.55 | 0.625 | 0.769 | 0.547 | 0.856 | 0.835 | 0.864 | 0.787 | 0.734 |
| NCI-H322M | 1 | 1.03 | 0.917 | 1.12 | 1.12 | 0.432 | 0.518 | 0.522 | 0.479 | 0.51 | 0.562 | 0.598 | 0.537 | 0.599 | 0.623 | 0.88 | 0.828 | 0.827 | 0.89 | 0.875 |
| NCI-H358 | 0.943 | 0.973 | 0.868 | 0.838 | 0.664 | 0.12 | 0.125 | 0.108 | 0.126 | 0.0973 | 0.791 | 0.822 | 0.849 | 0.815 | 0.752 | 0.336 | 0.338 | 0.317 | 0.317 | 0.202 |
| NCI-H1299 | 1.02 | 1.04 | 1.04 | 0.986 | 1.01 | – | – | – | – | – | – | – | – | – | – | – | – | – | – | – |
| NCI-H1563 | 1 | 0.962 | 0.947 | 0.808 | 0.938 | – | – | – | – | – | 0.78 | 0.79 | 0.771 | 0.788 | 0.753 | 0.677 | 0.686 | 0.683 | 0.634 | 0.649 |
| NCI-H1648 | 0.773 | 0.512 | 0.585 | 0.634 | 0.458 | 0.417 | 0.435 | 0.462 | 0.392 | 0.301 | 0.28 | 0.237 | 0.266 | 0.25 | 0.24 | – | – | – | – | – |
| NCI-H1703 | 0.955 | 0.931 | 0.861 | 1.08 | 0.905 | – | – | – | – | – | – | – | – | – | – | – | – | – | – | – |
